Assay results as given in patent publication US8338488B2, “Use of at least one oxime derivative of 3,5-seco-4-nor-cholestane as antioxidants” (Trophos, priority 2007, dated 2012).

Tests used:
[1] = Oxidation of cumene to cumene hydroperoxide by oxygen with AIBN, assayed by HPLC-UV; settings: for % of reduction of the oxidation of the cumene / Area of the signal, in relative units, of the cumene hydroperoxide: 2 equivalents of AIBN, 2 hours 45° C.
Procedure: The oxidation of cumene at atmospheric pressure and at 37° C. by oxygen is known and described in the presence of a radical initiator such as AIBN (azobisisobutyronitrile) (Blanchard H. S., J. Am. Chem. Soc. 1959, 81, 4548). A recent publication used this reaction to classify the antioxidant potential of known products such as vitamin E (which is the universal reference), BHT (butylated hydroxytoluene) and other products.
In the following experiment we reproduced the same experimental conditions as those described in the publication of Becker D. A. et al. (J. Am. Chem. Soc. 2002, 124, 4678-4684). A high pressure liquid chromatography method coupled with a UV detector was used to detect cumene hydroperoxide. The column used is an Agilent Zorbax Eclipse XDB RPC8 column (150×4.6 mm) coupled with a UV detector fixed at 254 nm. The gradient used is detailed in the following table: […]
2 ml of cumene (AcrosOrganic) and 0.5 ml of methanol are mixed, azobisisobutyronitrile (AcrosOrganic) is added (2 equivalents) and the solution taken to 45° C. in order to accelerate the chemical reaction. The cumene hydroperoxide appears over time and is assayed by the HPLC method.
The technique used made it possible to compare the appearance of the cumene hydroperoxide in the presence of an antioxidant agent such as the claimed products and vitamin E used as reference product.

[2] = Chemical stability of the powder under ICH storage conditions, total impurities by GC-FID; type: physicochemical; settings: for total impurities: powder
Procedure: These analyses were carried out using a gas chromatography method coupled with an FID detector. This method makes it possible to quantify the impurities at a level of 0.2%.

[3] = system: perfused isolated rat heart; experiment: Perfused isolated rat heart, ischaemia/reperfusion, DMPO spin trapping in the coronary effluents (EPR)
Procedure: The animals used are male rats of the Sprague Dawley strain (Harlan et CERJ, France) of 250-300 g) fed ad libitum. The rats are anaesthetized by an intraperitoneal injection of sodium pentobarbital (50 mg/kg of body weight). The thoracic cavity is then opened and the heart rapidly removed and immersed in perfusion liquid (Krebs-Henseleit) at 4° C. in order to stop any contraction.
The heart with fatty tissues removed is then perfused according to Langendorff's technique by aortic retrograde route at a constant pressure of 90 cm H2O. A small incision in the pulmonary artery allows the flow and measurement of the coronary effluent over time (coronary flow rate). The time required for completion of the entire operation is two to three minutes. After ablation of the left auricle, a latex cuff is inserted into the left ventricle and filled with a volume of distilled water (50-60 μl) which remains constant during the experimental protocol, connected to a pressure sensor (GOULD) and to a differentiating recorder allowing the measurement of the following haemodynamic parameters: • intraventricular diastolic pressure (Pdia) • developed pressure of left ventricle Pdev=Psystolic−Pdia • dP/dt (first derivative of the developed pressure, cardiac contractility index in this model) • cardiac frequency (F) • cardiac work calculated according to the relationship W=Pdev×F […]

[4] = Pharmacokinetics in the rat, oral and intravenous routes; type: in vivo; settings: 500 mg/kg by oral route, suspension in corn oil, i.v. reference in cremophor/ethanol/water
Procedure: A study of pharmacokinetics with administration by oral route in suspension in corn oil and by intra-venous route in solution in cremophor/ethanol/water (5%, 10%, 85%) made it possible to calculate the bioavailability of the product. The assay of the product in the plasma is carried out by a high pressure liquid chromatography method coupled with mass spectrometry.

[5] = Competition with DMPO for the tBuO radical, DMPO-tBuO adduct signal measured by EPR
Procedure: The nitrones trap the radical species (R.; RO.) and allow their observation by electron paramagnetic resonance (EPR) (Degray J. et al. Electron Spin Resonance, Ed N. M. Atherton, Atheaeum Press Ltd; Cambridge, 1994, 14, 246).
The incubation of the DMPO (Interchim-U2469) (20 mM) in deoxygenated toluene (Sigma-Aldrich) in the presence of the tBuO (tert-butoxyl) radical, generated by photolysis, makes it possible to identify and quantify by EPR the signal of the DMPO-tBuO radical. This signal is inhibited in the presence of an equimolar quantity of 3,5-seco-4-nor-cholestane oxime.
The EPR signal allows integration in the form of an area of the signal of the DMPO-tBuO adduct and therefore a relative quantification of this radical entity.
All the experiments were carried out on an X-band Bruker ESP300 device (9.5 GHz) at ambient temperature. The solutions were studied in a quartz EPR tube.

Molecule: CC(C)CCC[C@@H](C)[C@H]1CC[C@H]2[C@@H]3CC/C(=N\O)[C@](C)(CCCO)[C@H]3CC[C@]12C [3,5-seco-4-nor-cholestan-5-one oxime-3-ol]
- reduction of the oxidation of the cumene by oxygen (conclusion) [1]: approximately 40%
- % of reduction of the oxidation of the cumene ([1]; 50 μM): 25%
- Area of the signal, in relative units, of the cumene hydroperoxide ([1]; 50 μM): 300 relative units
- % of reduction of the oxidation of the cumene ([1]; 200 μM): 50%
- Area of the signal, in relative units, of the cumene hydroperoxide ([1]; 200 μM): 200 relative units
- activity compared with vitamin E ([1]; same concentrations): same order of magnitude
- change in the quality of the product ([2]; after 1 year's storage at 25° C.): No change in the quality
- change in the quality of the product ([2]; after 6 months of storage at 40° C.): No change in the quality
- total impurities ([2]; 25° C. under 60% relative humidity, T0): 0.2%
- total impurities ([2]; 25° C. under 60% relative humidity, T12 months): 0.2%
- total impurities ([2]; 40° C. under 75% relative humidity, T0): 0.2%
- total impurities ([2]; 40° C. under 75% relative humidity, T6 months): 0.2%
- extracellular production of free radical scavenging adducts (DMPO-OH) in the coronary effluents ([3]; 1 μM in Krebs buffer, DMPO 50 mM, reperfusion after ischaemia, p<0.05): large and significant reduction
- protection with respect to the vehicle (DMPO-OH adducts, FIG. 1) ([3]; 1 μM, two groups of 6 hearts): significant protection
- bioavailability [4]: 6%
- % inhibition of the DMPO-tBuO radical ([5]; compound 20 mM + DMPO 20 mM, 200 s): 50%
- % inhibition of the DMPO-tBuO radical ([5]; compound 20 mM + DMPO 20 mM, 400 s): 66%
- Area of the DMPO-tBuO signal at 200 s in relative units ([5]; compound 20 mM + DMPO 20 mM, (t-BuO)2 20 mM, photolysis at 350 nm, 200 s): 3 relative units
- Area of the DMPO-tBuO signal at 400 s in relative units ([5]; compound 20 mM + DMPO 20 mM, (t-BuO)2 20 mM, photolysis at 350 nm, 400 s): 4 relative units
- effect on the DMPO-tBuO EPR signal ([5]; equimolar quantity to DMPO (20 mM), deoxygenated toluene): inhibited
- inhibition of the level of the DMPO-tBuO signal radical (conclusion) ([5]; equimolar with DMPO): ~60%
- kinetics of inhibition of the DMPO-tBuO signal (time) ([5]; rapid kinetics): less than 10 minutes

Molecule: vitamin E [reference compound]
- % of reduction of the oxidation of the cumene ([1]; 100 μM): 39%
- Area of the signal, in relative units, of the cumene hydroperoxide ([1]; 100 μM): 245 relative units
